Source: PubChem BioAssay AID1963867 (Molecular Pharmacology Branch, DTP, NCI, 2024)
pIC50: −log10 of the molar value.

Tested on: KRAS-mutant PDC tumor spheroid with HUVEC/MSC, viability
Test: Anticancer human tumor 327498-153-R-J2-PDC patient-derived uterine carcinosarcoma cell line growth inhibition [KRAS2]
Details: for pIC50: curve of first compound; for viability, T/C: stronger effect = lower value
Summary of the method: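 KRAS-mutant tumor cells were grown as spheroids with HUVEC endothelial cells and human MSCs as stroma. Targeted agents were tested alone and with KRAS pathway inhibitors. Doses started at or near clinical Cmax, or 10 microM, descending half-log.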

[1] = second compound 0.1 µM, first compound 0.0316 µM
[2] = second compound 0.1 µM, first compound 0.1 µM
[3] = second compound 0.1 µM, first compound 0.316 µM
[4] = second compound 0.1 µM, first compound 1 µM
[5] = second compound 0.1 µM, first compound 3.16 µM
[6] = second compound 0.316 µM, first compound 0.0316 µM
[7] = second compound 0.316 µM, first compound 0.1 µM
[8] = second compound 0.316 µM, first compound 0.316 µM
[9] = second compound 0.316 µM, first compound 1 µM
[10] = second compound 0.316 µM, first compound 3.16 µM
[11] = second compound 1 µM, first compound 0.0316 µM
[12] = second compound 1 µM, first compound 0.1 µM
[13] = second compound 1 µM, first compound 0.316 µM
[14] = second compound 1 µM, first compound 1 µM
[15] = second compound 1 µM, first compound 3.16 µM
[16] = second compound 3.16 µM, first compound 0.0316 µM
[17] = second compound 3.16 µM, first compound 0.1 µM
[18] = second compound 3.16 µM, first compound 0.316 µM
[19] = second compound 3.16 µM, first compound 1 µM
[20] = second compound 3.16 µM, first compound 3.16 µM
[21] = second compound 10 µM, first compound 0.0316 µM
[22] = second compound 10 µM, first compound 0.1 µM
[23] = second compound 10 µM, first compound 0.316 µM
[24] = second compound 10 µM, first compound 1 µM
[25] = second compound 10 µM, first compound 3.16 µM
[26] = second compound 0.1 µM, first compound 10 µM
[27] = second compound 0.316 µM, first compound 10 µM
[28] = second compound 1 µM, first compound 10 µM
[29] = second compound 3.16 µM, first compound 10 µM
[30] = second compound 10 µM, first compound 10 µM
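Note: spheroids exposed to agents for seven days before reading.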
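Throughout, for viability, T/C: 100% = DMSO vehicle wells so lower means fewer viable cells.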

Compound | pIC50 (second compound 0.1 µM) | pIC50 (second compound 0.316 µM) | pIC50 (second compound 1 µM) | pIC50 (second compound 3.16 µM) | pIC50 (second compound 10 µM) | viability, T/C [1] [%] | viability, T/C [2] [%] | viability, T/C [3] [%] | viability, T/C [4] [%] | viability, T/C [5] [%] | viability, T/C [6] [%] | viability, T/C [7] [%] | viability, T/C [8] [%] | viability, T/C [9] [%] | viability, T/C [10] [%] | viability, T/C [11] [%] | viability, T/C [12] [%] | viability, T/C [13] [%] | viability, T/C [14] [%] | viability, T/C [15] [%] | other results
CC1COCCN1c1cc(-c2ccnn2C)c2ccnc(-c3ccn[nH]3)c2n1 (stereo not given) + CNCc1ccccc1-c1csc(C(C)Nc2nc(C)nc3cc(OC)c(OC)cc23)c1 | 7.63 | 7.75 | 7.82 | > 8.00 | > 8.00 | 39.5 | 9.19 | 5.57 | 5.53 | 5.04 | 33.8 | 11.5 | 5.05 | 5.87 | 5.3 | 26.7 | 9.86 | 4.09 | 3.98 | 1.03 | viability, T/C (second compound 0.1 µM, first compound 0.01 µM): 80%; viability, T/C (second compound 0.316 µM, first compound 0.01 µM): 66.6%; viability, T/C (second compound 1 µM, first compound 0.01 µM): 62.9%; viability, T/C (second compound 3.16 µM, first compound 0.01 µM): 0.09%; viability, T/C [16]: 0.07%; viability, T/C [17]: 0.05%; viability, T/C [18]: 0.71%; viability, T/C [19]: 0.03%; viability, T/C [20]: 0.13%; viability, T/C (second compound 10 µM, first compound 0.01 µM): 0.13%; viability, T/C [21]: 0.13%; viability, T/C [22]: 0.13%; viability, T/C [23]: 0.12%; viability, T/C [24]: 0.12%; viability, T/C [25]: 0.21%
CC1OCC2(CCN(c3cnc(Sc4ccnc(N)c4Cl)c(N)n3)CC2)C1N (stereo not given) + CNCc1ccccc1-c1csc(C(C)Nc2nc(C)nc3cc(OC)c(OC)cc23)c1 | 6.87 | 6.96 | 7.00 | > 7.50 | > 7.50 | 75.4 | 52.6 | 41.2 | 34.2 | 30.9 | 61.4 | 51.8 | 36 | 31 | 28 | 65.7 | 50.1 | 39.9 | 31.9 | 31.7 | viability, T/C [26]: 27.7%; viability, T/C [27]: 24.6%; viability, T/C [28]: 27.5%; viability, T/C [16]: 0.11%; viability, T/C [17]: 0.09%; viability, T/C [18]: 0.08%; viability, T/C [19]: 0.06%; viability, T/C [20]: 0.06%; viability, T/C [29]: 0.17%; viability, T/C [21]: 0.13%; viability, T/C [22]: 0.18%; viability, T/C [23]: 0.13%; viability, T/C [24]: 0.43%; viability, T/C [25]: 0.13%; viability, T/C [30]: 0.22%
CCNC(=O)CC1N=C(c2ccc(Cl)cc2)c2cc(OC)ccc2-n2c(C)nnc21 (stereo not given) + CNCc1ccccc1-c1csc(C(C)Nc2nc(C)nc3cc(OC)c(OC)cc23)c1 | 5.86 | 6.32 | 6.42 | > 7.50 | > 7.50 | 88 | 76.8 | 59 | 55.8 | 43.4 | 69.5 | 69.6 | 53.4 | 41 | 36.3 | 77.6 | 64 | 52.6 | 40.3 | 33.1 | viability, T/C [26]: 34%; viability, T/C [27]: 29.8%; viability, T/C [28]: 28%; viability, T/C [16]: 1.88%; viability, T/C [17]: 1.54%; viability, T/C [18]: 0.18%; viability, T/C [19]: 1.98%; viability, T/C [20]: 0.12%; viability, T/C [29]: 0.21%; viability, T/C [21]: 1.35%; viability, T/C [22]: 1.7%; viability, T/C [23]: 0.26%; viability, T/C [24]: 0.21%; viability, T/C [25]: 0.2%; viability, T/C [30]: 0.28%
